Laboratory results published in a melting point compilation (Tetko et al.; mined from patent text by program, amines drawn as free bases though some values may be those of a salt).

melting point [°C] | Structure (SMILES)
49 to 52 | C=CC(=O)OC1CC(C)(C)N(OC2CCCCC2)C(C)(C)C1
212 to 215 | Cc1c(-c2ccncc2)[nH]c(-c2ccncc2)c1C(N)=O
200 to 202 | O=c1nc2n(cc1-c1ccccc1)CCC2
235 to 236 | COc1cc(NC(C)=O)c(Cl)cc1-c1nn(-c2ccc(C(F)(F)F)cc2)c(=O)o1
256 to 257 | CCCCCc1ccc(C#Cc2c3ccccc3c3ccc4c(C#Cc5ccc(CCCCC)cc5)c5ccccc5c5ccc2c3c45)cc1
113 | COc1cc(-c2nc3ccc(OCCN4CCN(C)CC4)cc3n2Cc2ccccc2)cc(OC)c1OC
130 to 131 | NC(=O)CNC(=O)c1cccc(-c2cccc3sc(Cc4cccc(C(F)(F)F)c4)nc23)c1
172 to 174 | CNc1ccc(Oc2nc(OC)cc(OC)n2)c(C(=O)O)n1
221 | N#Cc1cc2c(c(C(=O)O)c1)OC(c1ccccc1)(c1ccccc1)O2
209 to 212 | COc1cc(Cc2cnc(N)nc2N)c2cc(C)oc2c1OC
202 to 203 | CCCc1ccc(S(=O)(=O)Nc2ccc3ncncc3c2)cc1
101 to 102 | CS(=O)(=O)NC1(c2ccc(I)cc2)CC1
156 | COc1cc(-c2cc3ccccc3[nH]2)ccc1OS(=O)(=O)c1ccccc1
136 to 139 | Nc1nc(Cl)cc(NCC2(CO)CC(O)C2)n1 (stereo not given)
101 | CC(=O)N1CCC(C(=O)OC2c3ccccc3C(=O)N2c2ccc3ccc(Cl)nc3n2)CC1 (stereo not given)
109 to 113 | Nc1nc2c(s1)CCN(CC1CC1c1ccccc1)CC2 (stereo not given)
153 to 154 | CC(c1ccccc1)N1CC(C(C(N)=O)(c2ccccc2)c2ccccc2)C1 (stereo not given)
178 to 180 | CC(O)(c1ccc(Cl)cc1)C1CCNCC1 (stereo not given)
164 | O=C(c1ccc(F)cc1)C1CCN(CCCn2c(=O)[nH]c3ccccc32)CC1
135 to 137 | O=C1CCN=C(c2ccccc2Cl)c2ccccc21
139 to 149 | O=C(Nc1ccccc1)c1cccs1
110 | O=C(c1cc(-c2ccc(Cl)cc2)c(N2CCOCC2)s1)c1ccc(Cl)cc1Cl
165 to 166 | Cn1cc(CC#N)c2cc([N+](=O)[O-])ccc21

melting point [°C] | Structure (SMILES)
136 to 137 | Cc1oc(-c2ccccc2)nc1COc1ccc2oc(CCCc3nnn[nH]3)cc2c1
317 to 319 | N=C(NO)c1ccc(-c2cccc(-c3nc4cc(C(=N)NO)ccc4[nH]3)c2)cc1
190 to 192 | O=C(O)c1cc(Cl)cc(Cl)c1[N+](=O)[O-]
101 to 102 | Nc1cnccc1C(=O)Nc1ccc(-n2nc(C(F)(F)F)cc2C(F)(F)F)cc1
176 to 179 | COc1cccc2c(Sc3nc(C)c(CC(=O)O)s3)cc(C(=O)O)nc12
96 to 98 | COc1cccc(-c2cc(C(C)(C)C)c(O)c(C(C)(C)C)c2)c1
182 to 186 | CC(=O)OC1(O)C(C(C)(C)C)=CC(C(=O)c2ccccc2O)=CC1C(C)(C)C (stereo not given)
164 to 167 | CC1=C(c2ccccc2)C(=O)N(C(C)(C)c2cc(Cl)c(F)c(Cl)c2)C1
43.7 | N#CC=Cc1ccc(-c2ccccc2)cc1
65 to 66 | CC(=O)c1cc(Br)no1
303 to 305 | O=c1[nH]c2ncc(-c3ccc(-c4n[nH]c(C(F)(F)F)n4)cc3)nc2n1CC1CCCCC1
114 to 115 | CCOC(=O)c1ccn2nccc2n1
236 | COC(=O)C1=C(C)Nc2nc(N3CCOCC3)nc(N3CCOCC3)c2C1c1ccc([N+](=O)[O-])cc1 (stereo not given)
114 | COC(=O)c1oc2c(OC)cccc2c1O
176 to 177 | CCC1CC(=O)c2c(NC(=O)C(=O)O)ccc(C)c21 (stereo not given)
170 to 173 | c1cc(-n2cccn2)cc(-n2cnc3cc(-c4ccoc4)ccc32)c1
175 to 176 | O=[N+]([O-])c1ccc(N2CCN(Cc3ccccc3)CC2)nc1CS(=O)(=O)c1ccccc1
189 to 195 | CNC(=O)C(=NOC)c1ccccc1COc1ncc(C(=O)O)cc1Cl
220 to 222 | Oc1ccc2c(c1)COc1c-2cc2ccc(O)cc2c1-c1ccccc1Cl
55 to 61 | CC(C)NC(C)CCc1nc(Cn2cnc3c2c(=O)n(C)c(=O)n3C)no1 (stereo not given)
153 to 154 | CCOC(=O)c1cc2c(F)cc(F)cc2[nH]1
144 to 146 | COc1ccc(C#CCCCCOc2ccc(C(=O)c3cccc(C(=O)O)c3)cc2CCC(=O)O)cc1
246 to 248 | COc1cccc([C@H]2O[C@H](CC(=O)Nc3c(C)c(C)c4oc(C(=O)O)cc4c3C)C(=O)N(CC(C)(C)CO)c3ccc(Cl)cc32)c1OC

melting point [°C] | Structure (SMILES)
205 | c1ccc2c(c1)CCc1ccc(-c3nnn[nH]3)cc1S2
193 to 194 | CCCOc1ccccc1-c1nc2nc(NCCOC)ncc2c(=O)[nH]1
186 to 187 | C[C@@H](NC(=O)[C@H](Cc1ccc(OC(C)(C)C)cc1)NC(=O)OC(C)(C)C)C(=O)O
127 to 129 | Cc1nc(-c2nn(Cc3ccccc3)c3ccccc23)oc1CO
224 to 225 | COc1ccc(C(=O)N2CCc3cc(O)c(OC)cc3C2=O)cc1
109 to 110 | COC(=O)c1c(O)c2cc(OCc3ccccc3)ccc2c(=O)n1CC(C)C
180 to 185 | CC(C)c1cc2n(Cc3ccccc3)cc(C(=O)O)c(=O)n2n1
45 to 50 | OC1CCCNC1CN1CCCC1 (stereo not given)
144 to 148 | CC(C)c1cc(C(C)C)c(C=CC(=O)c2ccc(C(C)C)c(OS(N)(=O)=O)c2C(C)C)c(C(C)C)c1
236 to 238 | O=C1COc2cc(Sc3ccc(O)c(O)c3)ccc2N1
90 to 93 | CCCn1cc(Cc2ccc(C(=O)NS(=O)(=O)c3ccccc3C)cc2OC)c2cc(CCC(C)C(=O)N(C)C)ccc21 (stereo not given)
166 | COCc1ccc(C2(O)CCN(CC(O)c3cc(C)c(O)cc3C)CC2)cc1 (stereo not given)
95 to 97 | CN1Cc2cccc(Cl)c2S1(=O)=O
258 to 260 | CN(c1cccc2cc(-c3ncc(C(=O)O)s3)[nH]c12)S(=O)(=O)c1cccs1
173 | CC1CC2C3=C(C(O)CC2(C)C1C(=O)CO)C1(C)C=CC(=O)C=C1C(F)C3 (stereo not given)
162 | COc1nc2cc(Br)c3c(c2nc1OC)CCN(C)C3
178 to 180 | Cn1cc(C=O)cc1C(=O)O
162 to 165 | C[C@@H]1S[C@@H](C(=O)N(C)c2ccc(CN3CCOCC3)cc2)Cc2cc3c(cc2C1=O)OCO3
230 to 232 | Cn1cc(C2=C(c3ccccc3)C(=O)NC2=O)c2ccccc21
75 to 77 | Clc1ccc(Oc2cncc3sc(-c4ccco4)cc23)cc1
160 to 162 | CCOc1cccc2cc(S(=O)(=O)Nc3ccc(F)c(N)c3)c(=O)oc12
309 to 311 | O=C1CCC(N2Cc3c(CNC(=O)NC4CCCCC4)cccc3C2=O)C(=O)N1 (stereo not given)

Structure (SMILES) | melting point [°C]
Cc1c2c(cn1C)NC(=O)C(OC(=O)CCCN1C(=O)c3ccccc3C1=O)N=C2c1ccccc1 (stereo not given) | 210 to 212
C[C@]12C[C@H](c3ccc(OCCCCCl)cc3)C3=C4CCC(=O)C=C4CC[C@H]3[C@@H]1CCC2=O | 194
